Read-outs that look alike come from different tables or passages of the source.
Columns and labels:
[1] = In vitro intrinsic clearance in human liver microsomes (HLM); format: in vitro ADME; details: pH 7.4, 1 μM substrate, NADPH, 37° C., read-out: HLM CLint, app
Experimental: Test Compounds (Example 1-3 and Comparative-Compounds 1-4) were prepared as solutions in DMSO. The final concentration of DMSO in the incubation was <0.1% (v/v). […] (all final concentrations) in a 384-well plate. The reaction mixture was pre-warmed at 37° C. for 10 min prior to initiation of the incubation. The incubation was quenched with acetonitrile containing internal standards at the following time points: 1, 4, 7, 12, 20, 25, 45, and 60 min (individual incubation plates per time point) with a subsequent addition of water. The samples were vortexed followed by centrifugation and the supernatant was analyzed by LC/MS-MS using multiple reaction monitoring. For control experiments, NADPH was omitted from the incubations.
The microsomal t½ (min) was obtained from a log-linear plot of the substrate depletion versus incubation time and was scaled to hepatic intrinsic clearance (CLint,app (μL/min/mg protein) using the following equation: […]

[2] = In vitro intrinsic clearance in human hepatocytes; format: in vitro ADME; details: 1 μM substrate, human hepatocytes 0.5 million viable cells per mL, 37° C.
Experimental: Test Compounds (Example 1-3 and Comparative-Compounds 1-4) were prepared as solutions in DMSO at 3 mM which were then diluted in media containing WEM. The final concentration of DMSO in the incubation was 0.03% (v/v). The in vitro half-life (t½) of each compound was determined in incubations containing substrate (1 μM), human hepatocytes (0.5 million viable cells per mL final concentration) in media containing WEM, 50 mM HEPES buffer (pH 7.4), and 26 mM sodium bicarbonate at 37° C. (all final concentrations) in a 96-well plate. The reaction mixture was pre-warmed at 37° C. for 30 min prior to the initiation of the incubation. The incubation was quenched with acetonitrile containing internal standards at the following time points: 0, 5, 15, 30, 60, 120, and 240 min (individual incubation plates per time point). The samples were vortexed followed by centrifugation. An aliquot of supernatant was transferred to a clean 96-well plate and analyzed by LC/MS-MS using multiple reaction monitoring. For control experiments, hepatocytes were omitted from the incubations.
The hepatocyte t½ (min) was obtained from a log-linear plot of the substrate depletion versus incubation time and was scaled to hepatic intrinsic clearance (CLint,app (μL/min/million cells) using the following equation: […]

[3] = Dynamic vapor sorption (hygroscopicity); format: physicochemical; details: 25° C.
Experimental: (§1) An automated vapor sorption analyzer (VTI SGA-CX; VTI scientific) was used to measure the hygroscopicity of the anhydrate of Form I of the invention. The microbalance was calibrated using a 100 mg standard weight. The relative humidity sensor was calibrated at 5.0, 11.3, 32.8, 52.8, 75.3, and 84.3% RH (25° C.) using saturated salt solutions, as well as 80% RH (25° C.) using polyvinylpyrrolidone. Approximately 8-10 mg of the powder sample was placed in the platinum sample pan and dried at 3% relative humidity (RH) at 25° C. with a heating rate of 1° C. per minute. The attainment of equilibrium was assumed when the weight change of the sample was <0.001 wt % in 5 min or by a maximum equilibration time of 120 minutes. […] Again, the attainment of equilibrium was assumed when the weight change of the sample was <0.001 wt % in 5 min or by a maximum equilibration time of 120 minutes. The weight gain at the end of the sorption cycle (90% RH) was calculated on the basis of the dry weight.
as §1, with “Moisture/Water sorption and desorption studies were conducted on automated” for “An automated”, “analyzer (TA instruments Q5000 SA).” for “analyzer (VTI SGA-CX; VTI scientific) was used to measure the hygroscopicity of the anhydrate of Form I of the invention.”, “salt solutions.” for “salt solutions, as well as 80% RH (25° C.) using polyvinylpyrrolidone.”, “Approximately 10-20” for “Approximately 8-10”, “at ≤3%” for “at 3%”, “C.” for “C. with a heating rate of 1° C. per minute.”

[4] = target: T1, human recombinant Monoacylglycerol Lipase (Homo sapiens, UniProt Q99685); experiment: MAGL inhibition enzymatic assay (7-HCA fluorogenic substrate); format: biochemical; details: geometric mean
T1 sequence (Q99685 1-303): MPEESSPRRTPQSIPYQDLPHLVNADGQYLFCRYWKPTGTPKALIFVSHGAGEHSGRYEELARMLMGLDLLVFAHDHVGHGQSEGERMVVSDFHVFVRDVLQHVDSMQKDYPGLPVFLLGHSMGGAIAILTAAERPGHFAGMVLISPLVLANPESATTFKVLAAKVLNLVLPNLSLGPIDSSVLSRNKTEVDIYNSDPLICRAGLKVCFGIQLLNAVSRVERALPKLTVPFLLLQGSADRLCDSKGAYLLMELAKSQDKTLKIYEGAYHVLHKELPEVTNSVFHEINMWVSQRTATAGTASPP
Experimental: (§2) Assessment of MAGL inhibition utilizes human recombinant Monoacylglycerol Lipase and the fluorogenic substrate 7-hydroxycoumarinyl arachidonate (7-HCA, Biomol ST-502). 400 nL of a test compound at decreasing concentration (ranging from 150 μM down to 1.5 nM) was spotted into a 384-well back plate (PerkinElmer, 6007279) using a Labcyte Echo, followed by addition of 10 μL of MAGL enzyme in assay buffer (50 mM HEPES, pH 7.4, 100 mM NaCl, 5 mM MgCl2, 0.1% Triton X-100 and 25% glycerin). An equal volume of 7-HCA in assay buffer with 10% DMSO was added either immediately (T=0 min) or after a 30 minute incubation (T=30 min) to initiate the reaction. The final concentration of MAGL enzyme was […] and 7-HCA substrate was 5 μM. After these dilutions, the final concentration of the test compound ranged from 3 μM to 0.03 nM. The reaction was allowed to progress for 60 minutes, after which the plate was read at an Ex/Em of 340/465. Percent inhibitions were calculated based on control wells containing no compound (0% inhibition) and a control compound (e.g., a MAGL inhibitor whose activity is known or was previously reported in the literature, such as one with about 100% inhibition). IC50 values were generated based on a four parameter fit model using ABASE software from IDBS. See e.g., Wang, Y. et al., “A Fluorescence-Based Assay for Monoacylglycerol Lipase Compatible with Inhibitor Screening,” Assay and Drug Development Technologies, 2008, Vol. 6 (3) pp 387-393 (reporting an assay for measuring MAGL activity).

[5] = target: T1, human recombinant Monoacylglycerol Lipase; experiment: MAGL inactivation (enzyme progress curves, kinact/KI); format: biochemical; details: geometric mean
Experimental: as §2
To measure MAGL inactivation, the same protocol for the (T=0 min) MAGL inhibition IC50 assay was performed with data collected every minute to acquire enzyme progress curves at decreasing concentrations of compound.

human recombinant FAAH = target: T2, human recombinant FAAH (Homo sapiens, UniProt O00519); experiment: FAAH inhibition enzymatic assay (Arachidonoyl-AMC substrate); format: biochemical; details: 30 minute incubation; geometric mean; read-out: FAAH (T = 30 min) IC50
T2 construct: purchased Cayman 10010183
T2 sequence (O00519 1-579): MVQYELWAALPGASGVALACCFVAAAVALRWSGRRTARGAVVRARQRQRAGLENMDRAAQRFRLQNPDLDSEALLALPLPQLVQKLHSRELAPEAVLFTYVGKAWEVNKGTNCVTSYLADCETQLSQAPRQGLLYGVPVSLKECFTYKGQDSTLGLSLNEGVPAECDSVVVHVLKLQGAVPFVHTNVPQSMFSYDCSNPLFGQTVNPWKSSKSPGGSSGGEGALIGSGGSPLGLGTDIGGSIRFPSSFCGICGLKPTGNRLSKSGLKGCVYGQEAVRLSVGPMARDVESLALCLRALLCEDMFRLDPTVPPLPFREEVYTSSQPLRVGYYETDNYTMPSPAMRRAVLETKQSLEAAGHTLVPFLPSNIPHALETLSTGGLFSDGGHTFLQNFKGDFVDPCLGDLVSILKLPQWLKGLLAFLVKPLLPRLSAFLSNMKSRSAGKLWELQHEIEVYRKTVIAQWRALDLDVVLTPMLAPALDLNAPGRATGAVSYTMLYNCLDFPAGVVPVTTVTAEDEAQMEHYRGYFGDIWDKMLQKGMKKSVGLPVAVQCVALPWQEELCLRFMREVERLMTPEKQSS
Experimental: Assessment of FAAH inhibition utilizes human recombinant FAAH and the fluorescent substrate, Arachidonoyl-AMC. 400 nL of a test compound at decreasing concentrations was spotted into a 384-well back plate (PerkinElmer, 6007279) using a Labcyte Echo, followed by addition of 10 μl of FAAH enzyme (Cayman 10010183) in assay buffer (50 mM Tris, pH 9.0, 1 mM EDTA, i.e. ethylenediaminetetraacetic acid). After a 30 minute incubation at room temperature, 10 μL of Arachidonyl-AMCA was added in assay buffer with 16% DMSO. […] The reaction was allowed to progress for 60 minutes, after which the plate was read on a Molecular Devices FlexStation reader at an Ex/Em of 355/460. Percent inhibitions were calculated based on controls wells containing either no compound (0% inhibition) or a control compound (e.g., an FAAH inhibitor whose activity is known or was previously reported in the literature, such as one with about 100% inhibition). IC50 values were generated based on a four parameter fit model using ABASE software from IDBS.

[6] = 30 minute incubation before substrate, read-out: MAGL (T = 30 min) IC50
[7] = substrate added immediately (T=0 min), read-out: MAGL (T = 0 min) IC50

In the case of `O=C(OC(C(F)(F)F)C(F)(F)F)N1CCC2(CC1)C[C@@H](NS(=O)(=O)c1ccccc1)CO2` [Comparative-Compound 4, 1,1,1,3,3,3-hexafluoropropan-2-yl (3R)-3-[(phenylsulfonyl)amino]-1-oxa-8-azaspiro[4.5]decane-8-carboxylate], the microsomal CLint at 1 μM [1] is reported as 30.4 µL/min/mg and the “HHEPs CLint, app” value [2] is reported as 27.5 μL/min/million.
For `O=C(OC(C(F)(F)F)C(F)(F)F)N1CCC2(CC1)C[C@@H](NS(=O)(=O)C1CC1)CO2` [Form A, 1,1,1,3,3,3-hexafluoropropan-2-yl(3R)-3-[(cyclopropylsulfonyl)amino]-1-oxa-8-azaspiro[4.5]decane-8-carboxylate], the DVS weight gain ([3]; 0-60% RH) was 0-60% RH, 25° C.: <0.1% weight gain, the DVS weight gain ([3]; 60% RH) was 60% RH, 25° C.: <0.1% weight gain and the DVS weight gain ([3]; 75% RH) was 75% RH, 25° C.: <0.1% weight gain. The DVS weight gain ([3]; 90% RH) was 90% RH, 25° C.: <0.1% weight gain and the DVS weight gain ([3]; at up to 90% RH) was “less than 0.1%”.
With `O=C(OC(C(F)(F)F)C(F)(F)F)N1CCC2(CCC(NS(=O)(=O)CC3CC3)CO2)CC1` (single isomer, unassigned; ent-1) [Example 4, 1,1,1,3,3,3-Hexafluoropropan-2-yl 3-{[(cyclopropylmethyl)sulfonyl]amino}-1-oxa-9-azaspiro[5.5]undecane-9-carboxylate, ENT-1] the IC50 [4, 6] was 20 nM, the IC50 [4, 7] was 162 nM and the “MAGL kinact/KI” value [5] was 3110 1/s per M. The IC50 (human recombinant FAAH) was > 30000 nM.
In the case of `O=C(OC(C(F)(F)F)C(F)(F)F)N1CCC2(CCC(NS(=O)(=O)CC3CC3)CO2)CC1` (single isomer, unassigned; ent-2) [Example 5, 1,1,1,3,3,3-Hexafluoropropan-2-yl 3-{[(cyclopropylmethyl)sulfonyl]amino}-1-oxa-9-azaspiro[5.5]undecane-9-carboxylate, ENT-2], the IC50 [4, 6] is reported as 10.1 nM, the IC50 [4, 7] is reported as 103 nM and the “MAGL kinact/KI” value [5] is reported as 6930 1/s per M. The IC50 (human recombinant FAAH) was > 30000 nM.
In the case of `O=C(OC(C(F)(F)F)C(F)(F)F)N1CCC2(CC1)C[C@@H](NS(=O)(=O)CC1CC1)CO2` [Form I, 1,1,1,3,3,3-Hexafluoropropan-2-yl (3R)-3-{[(cyclopropylmethyl)sulfonyl]amino}-1-oxa-8-azaspiro[4.5]decane-8-carboxylate], the DVS weight gain ([3]; 0-60% RH) is reported as 0-60% RH, 25° C.: <0.1% weight gain, the DVS weight gain ([3]; 60% RH) is reported as 60% RH, 25° C.: <0.1% weight gain and the DVS weight gain ([3]; 75% RH) is reported as 75% RH, 25° C.: <0.1% weight gain. The DVS weight gain ([3]; 90% RH) was 90% RH, 25° C.: <0.1% weight gain and the DVS weight gain ([3]; at up to 90% RH) was “less than 0.1%”.

— patent publication US20210309669A1, “Heterocyclic Spiro Compounds As MAGL Inhibitors” (Pfizer Inc., priority 2018, published 2021)
